# Test results reported in ChEMBL document CHEMBL1201862, “PubChem BioAssay data set” (2004).
# The source made the active and inactive calls.
# Legend:
# [1] = biological target: T1, Fatty acid synthase (Homo sapiens, UniProt P49327); experiment: FAS thioesterase domain inhibitors, dose response, biochemical, endpoint fluorescence intensity, uHTS hits (AID 624327); format: functional;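 further: fluorescence from hydrolysis of an O-methyl fluorescein acyl ester substrate by the enzyme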
# [2] = biological target: T1, Fatty acid synthase; experiment: FAS thioesterase domain inhibitors, dose response, biochemical, kinetic fluorescence intensity (AID 624326); format: functional;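 further: rate of fluorescence rise from hydrolysis of a fluorogenic O-methyl fluorescein ester substrate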
# [3] = biological target: T2, Ubiquitin-conjugating enzyme E2 N (Homo sapiens, UniProt P61088); format: functional;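 further: Dose-response confirmation in a TR-FRET assay detecting UBC13-driven polyubiquitin chain formation, inhibition measured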
# T2 sequence (P61088 whole entry): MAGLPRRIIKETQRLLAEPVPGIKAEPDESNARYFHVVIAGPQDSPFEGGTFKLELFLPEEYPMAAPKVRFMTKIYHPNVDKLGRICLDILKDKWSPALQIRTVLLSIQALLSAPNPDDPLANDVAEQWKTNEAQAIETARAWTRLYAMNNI
# [4] = tested on: H9c2; experiment: cells; format: functional, cell-based; settings: Rattus norvegicus, H9c2, Myocardium;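 further: confirmatory concentration-response retest of ultra-high-throughput screening hits for modulation of myocardial damage; cell death induced by hydrogen peroxide oxidative stress; compound pretreatment for 60 min then peroxide exposure for 2 h; potency is for protecting the cells against peroxide damage rather than for killing them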
# [5] = NIH-3T3 fibroblast cytotoxicity, dose response, cytotoxicity control, cell-based, fluorescence, Alamar Blue, secondary assay (AID 2327); format: functional;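 further: NIH-3T3 mouse fibroblasts cultured with fluconazole at 8 µg/mL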
# [6] = C. albicans growth with fluconazole, confirmation, fluorescence, retest (AID 2467); format: functional, cell-based
# [7] = biological target: T3, RNA-binding protein pos-1 (Caenorhabditis elegans, UniProt G5EF15); experiment: inhibitors of POS-1/mex-3 RNA binding, dose response, biochemical, fluorescence polarization (AID 1964);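 further: purified POS-1 fused to maltose binding protein made in E. coli; potency of compounds blocking POS-1 binding to fluorescent RNA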
# T3 sequence (G5EF15 whole entry): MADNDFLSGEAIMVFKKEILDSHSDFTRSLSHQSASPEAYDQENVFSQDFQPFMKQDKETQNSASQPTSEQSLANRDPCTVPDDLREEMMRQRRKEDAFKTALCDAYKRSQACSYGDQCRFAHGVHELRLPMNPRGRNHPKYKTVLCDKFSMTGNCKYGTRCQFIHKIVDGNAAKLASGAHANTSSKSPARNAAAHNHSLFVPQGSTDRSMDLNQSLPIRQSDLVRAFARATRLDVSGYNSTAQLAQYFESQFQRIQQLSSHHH
# [8] = biological target: T4, Zinc finger protein mex-5 (Caenorhabditis elegans, UniProt Q9XUB2); experiment: MEX-5/TCR-2 RNA interaction inhibitors, dose response, biochemical, C. elegans, fluorescence polarization (AID 1960)
# T4 sequence (Q9XUB2 whole entry): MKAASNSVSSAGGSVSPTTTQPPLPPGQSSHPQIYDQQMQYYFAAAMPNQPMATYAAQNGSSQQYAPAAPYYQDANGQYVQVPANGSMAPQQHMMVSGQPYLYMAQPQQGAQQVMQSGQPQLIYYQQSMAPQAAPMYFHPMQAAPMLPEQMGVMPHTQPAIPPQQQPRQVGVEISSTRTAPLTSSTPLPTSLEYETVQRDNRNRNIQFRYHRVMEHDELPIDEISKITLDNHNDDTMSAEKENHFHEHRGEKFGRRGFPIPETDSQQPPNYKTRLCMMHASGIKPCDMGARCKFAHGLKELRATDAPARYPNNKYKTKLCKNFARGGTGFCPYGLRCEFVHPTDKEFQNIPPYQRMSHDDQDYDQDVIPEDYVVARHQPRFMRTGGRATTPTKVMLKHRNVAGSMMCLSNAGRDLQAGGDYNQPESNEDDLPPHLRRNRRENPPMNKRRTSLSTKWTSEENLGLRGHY
# [9] = cells; format: functional
# [10] = biological target: T5, Replicative DNA helicase DnaB (Mycobacterium tuberculosis, UniProt P9WMR3); experiment: DnaB intein splicing inhibitors, dose response, biochemical, cell-free fluorescence (AID 449749); format: functional
# T5 sequence (P9WMR3 whole entry): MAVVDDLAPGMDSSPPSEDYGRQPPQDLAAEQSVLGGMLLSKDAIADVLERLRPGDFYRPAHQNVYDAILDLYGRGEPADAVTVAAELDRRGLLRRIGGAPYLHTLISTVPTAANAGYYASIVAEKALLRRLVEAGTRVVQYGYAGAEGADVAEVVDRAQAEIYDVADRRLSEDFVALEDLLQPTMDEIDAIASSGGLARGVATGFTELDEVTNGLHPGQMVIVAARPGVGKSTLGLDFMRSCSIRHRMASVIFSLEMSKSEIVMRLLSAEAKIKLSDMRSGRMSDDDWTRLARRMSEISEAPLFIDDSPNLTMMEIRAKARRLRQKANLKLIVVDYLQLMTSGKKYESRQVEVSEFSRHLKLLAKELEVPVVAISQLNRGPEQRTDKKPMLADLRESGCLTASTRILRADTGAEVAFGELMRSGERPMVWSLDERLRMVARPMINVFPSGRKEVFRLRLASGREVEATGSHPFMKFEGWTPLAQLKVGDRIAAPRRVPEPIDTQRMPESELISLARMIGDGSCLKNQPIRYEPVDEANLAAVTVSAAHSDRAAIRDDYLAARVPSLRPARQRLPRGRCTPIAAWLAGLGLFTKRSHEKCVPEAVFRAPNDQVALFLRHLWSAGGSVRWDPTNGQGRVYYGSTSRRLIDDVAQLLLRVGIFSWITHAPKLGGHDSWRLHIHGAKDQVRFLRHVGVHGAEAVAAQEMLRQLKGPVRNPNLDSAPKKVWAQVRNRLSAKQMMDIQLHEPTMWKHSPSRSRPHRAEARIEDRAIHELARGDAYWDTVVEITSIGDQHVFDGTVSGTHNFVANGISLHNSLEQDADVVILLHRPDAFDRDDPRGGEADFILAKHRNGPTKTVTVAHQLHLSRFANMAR
# [11] = biological target: T6, Protein RecA (Mycobacterium tuberculosis, UniProt P9WHJ3); experiment: Fluorescence Cell-Free Homogeneous Dose Retest to Identify Inhibitors of RecA-Intein Splicing Activity. [Related pubchem assays (depositor defined):AID2097, AID2223, AID489010, AID492950]; format: functional
# T6 sequence (P9WHJ3 whole entry): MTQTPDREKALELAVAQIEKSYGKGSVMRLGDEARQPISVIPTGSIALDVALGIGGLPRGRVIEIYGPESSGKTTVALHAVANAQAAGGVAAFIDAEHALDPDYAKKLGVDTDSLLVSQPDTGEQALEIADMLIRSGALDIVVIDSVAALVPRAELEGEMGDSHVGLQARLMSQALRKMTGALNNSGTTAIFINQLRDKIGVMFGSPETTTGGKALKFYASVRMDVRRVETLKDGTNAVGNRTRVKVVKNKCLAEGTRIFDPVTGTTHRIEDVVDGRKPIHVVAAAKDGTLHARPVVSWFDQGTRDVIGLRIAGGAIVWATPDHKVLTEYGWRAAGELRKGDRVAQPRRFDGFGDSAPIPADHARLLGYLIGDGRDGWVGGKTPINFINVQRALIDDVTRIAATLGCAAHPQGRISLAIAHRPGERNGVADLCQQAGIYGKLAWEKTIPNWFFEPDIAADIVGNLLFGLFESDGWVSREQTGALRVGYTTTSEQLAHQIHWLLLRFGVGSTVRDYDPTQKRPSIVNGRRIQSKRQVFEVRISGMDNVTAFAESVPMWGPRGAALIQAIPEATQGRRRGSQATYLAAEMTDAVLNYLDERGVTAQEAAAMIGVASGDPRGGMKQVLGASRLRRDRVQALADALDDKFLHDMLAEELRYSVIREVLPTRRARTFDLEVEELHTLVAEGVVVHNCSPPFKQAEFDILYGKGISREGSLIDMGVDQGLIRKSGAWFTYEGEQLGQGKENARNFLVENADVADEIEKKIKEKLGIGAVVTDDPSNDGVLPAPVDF
# [12] = biological target: Heat shock protein HSP 90-alpha (Homo sapiens, UniProt P07900); format: functional, organism-based
# [13] = Luminescence Cell-Based Dose Confirmation HTS to Identify Activators of 5'UTR Stem-Loop Driven Alpha-Synuclein mRNA Translation in H4 Neuroglioblastoma Cells. [Related pubchem assays: 1829 (Project Summary), 1814 (Primary HTS)]; format: functional
# [14] = Luminescence Cell-Based Dose Response HTS to Identify Activators of Luciferase Translation or Activity in H4 […] Cells. [Related pubchem assays: 1829 (Project Summary), 1814 (Primary HTS)]; format: functional
# [15] = tested on: H4; experiment: Luminescence Cell-Based Dose Response HTS to Identify Activators of 5'UTR Stem-Loop Driven Prion Protein mRNA Translation in H4 Neuroglioblastoma Cells. [Related pubchem assays: 1829 (Project Summary), 1814 (Primary HTS)]; format: functional; settings: Homo sapiens
# [16] = tested on: Vero; experiment: cells; format: functional; settings: Chlorocebus sabaeus
# [17] = inhibitors of HIV Env-driven cell fusion, dose response, cherry-pick (AID 652057); format: functional, cell-based
# [18] = off-target signal loss in HeLa-CEM21 co-culture – HeLa F-luc CTL cells, cherry-picked, counter-screen for HIV-1 Env fusion inhibitor project, dose response (AID 652040); format: functional, cell-based;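 further: potency for signal decrease marking cytotoxic or nonspecific inhibition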
# [19] = inhibitors of clade B AD8 Env fusion, dose response, cell-based, cherry-pick (AID 652062); format: functional;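 further: luciferase signal from cell-cell fusion driven by HIV-1 clade B AD8 Env; potency is for inhibitors of fusion seen as a drop in luminescence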
# [20] = Luminescence Cell-Based Dose Retest to Confirm Inhibitors of Cancer Stem Cells. [Related pubchem assays (depositor defined):AID2717, AID2721]; format: functional; settings: Homo sapiens
# T1 sequence (P49327 whole entry, the tested form may be a part): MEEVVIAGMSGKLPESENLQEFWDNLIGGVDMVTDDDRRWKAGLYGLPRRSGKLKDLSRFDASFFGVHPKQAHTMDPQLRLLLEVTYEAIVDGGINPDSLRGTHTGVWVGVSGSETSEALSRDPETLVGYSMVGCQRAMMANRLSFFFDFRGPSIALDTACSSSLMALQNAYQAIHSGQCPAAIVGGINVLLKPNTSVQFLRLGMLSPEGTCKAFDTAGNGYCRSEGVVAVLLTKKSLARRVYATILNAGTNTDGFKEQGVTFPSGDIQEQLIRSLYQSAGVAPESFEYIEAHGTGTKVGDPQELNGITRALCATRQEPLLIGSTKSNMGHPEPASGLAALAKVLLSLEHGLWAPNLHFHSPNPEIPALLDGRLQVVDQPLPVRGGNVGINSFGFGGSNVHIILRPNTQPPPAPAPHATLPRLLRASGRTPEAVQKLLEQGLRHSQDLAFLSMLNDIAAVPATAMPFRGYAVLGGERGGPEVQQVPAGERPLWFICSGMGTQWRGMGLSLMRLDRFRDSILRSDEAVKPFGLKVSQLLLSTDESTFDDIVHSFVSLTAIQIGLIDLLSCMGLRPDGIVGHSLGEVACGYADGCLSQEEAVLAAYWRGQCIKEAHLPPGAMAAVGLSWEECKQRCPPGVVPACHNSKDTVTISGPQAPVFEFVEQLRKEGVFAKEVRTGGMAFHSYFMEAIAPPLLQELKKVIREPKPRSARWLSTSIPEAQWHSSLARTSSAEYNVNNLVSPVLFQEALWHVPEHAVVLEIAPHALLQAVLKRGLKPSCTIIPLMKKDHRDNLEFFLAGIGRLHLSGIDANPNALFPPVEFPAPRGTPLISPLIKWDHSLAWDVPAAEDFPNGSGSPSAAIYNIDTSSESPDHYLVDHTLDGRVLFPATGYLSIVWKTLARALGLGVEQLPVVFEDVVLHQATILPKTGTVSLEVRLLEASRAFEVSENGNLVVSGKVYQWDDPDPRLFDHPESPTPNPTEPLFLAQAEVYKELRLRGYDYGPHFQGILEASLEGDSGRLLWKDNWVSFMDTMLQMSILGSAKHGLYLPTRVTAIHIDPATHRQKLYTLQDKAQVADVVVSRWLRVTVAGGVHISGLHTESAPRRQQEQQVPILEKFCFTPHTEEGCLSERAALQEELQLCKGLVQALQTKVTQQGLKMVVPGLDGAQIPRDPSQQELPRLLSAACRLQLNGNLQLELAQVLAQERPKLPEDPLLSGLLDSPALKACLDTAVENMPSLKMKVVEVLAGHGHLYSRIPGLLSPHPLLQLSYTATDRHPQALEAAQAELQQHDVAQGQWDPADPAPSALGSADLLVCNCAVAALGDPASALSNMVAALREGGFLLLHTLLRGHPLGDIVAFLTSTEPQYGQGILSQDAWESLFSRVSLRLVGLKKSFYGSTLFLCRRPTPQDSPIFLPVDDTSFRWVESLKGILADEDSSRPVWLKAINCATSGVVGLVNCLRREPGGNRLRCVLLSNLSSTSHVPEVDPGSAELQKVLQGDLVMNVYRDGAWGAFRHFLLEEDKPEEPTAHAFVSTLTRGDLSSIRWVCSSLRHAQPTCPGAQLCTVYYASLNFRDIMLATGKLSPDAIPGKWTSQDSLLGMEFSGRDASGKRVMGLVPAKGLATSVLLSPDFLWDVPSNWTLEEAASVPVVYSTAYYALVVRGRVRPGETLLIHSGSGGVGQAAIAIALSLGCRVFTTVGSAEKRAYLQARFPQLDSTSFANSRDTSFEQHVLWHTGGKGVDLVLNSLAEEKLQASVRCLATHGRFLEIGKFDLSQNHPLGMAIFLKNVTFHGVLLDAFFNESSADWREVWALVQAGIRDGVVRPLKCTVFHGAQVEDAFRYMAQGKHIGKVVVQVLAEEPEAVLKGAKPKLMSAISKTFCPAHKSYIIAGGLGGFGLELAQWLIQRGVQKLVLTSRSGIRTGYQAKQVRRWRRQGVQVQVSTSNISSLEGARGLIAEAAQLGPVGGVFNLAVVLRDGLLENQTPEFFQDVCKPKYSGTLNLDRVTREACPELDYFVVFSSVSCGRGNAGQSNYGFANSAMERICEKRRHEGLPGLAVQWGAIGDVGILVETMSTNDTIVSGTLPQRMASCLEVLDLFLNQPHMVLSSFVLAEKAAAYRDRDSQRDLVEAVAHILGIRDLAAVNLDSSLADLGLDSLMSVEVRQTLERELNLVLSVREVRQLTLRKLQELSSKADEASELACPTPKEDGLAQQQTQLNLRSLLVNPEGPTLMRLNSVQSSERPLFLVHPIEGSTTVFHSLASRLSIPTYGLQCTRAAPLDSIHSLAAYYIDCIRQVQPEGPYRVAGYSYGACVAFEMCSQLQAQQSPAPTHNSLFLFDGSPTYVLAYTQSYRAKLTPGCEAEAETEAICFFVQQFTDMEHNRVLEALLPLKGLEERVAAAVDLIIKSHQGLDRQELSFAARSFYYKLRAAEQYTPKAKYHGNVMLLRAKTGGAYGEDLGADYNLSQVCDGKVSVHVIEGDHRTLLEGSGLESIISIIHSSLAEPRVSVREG
smiles,measurement,setting,value
COc1cc(OC)c(C2=NOC(C(=O)N3CCc4ccccc4C3)C2)cc1Cl (stereo unspecified),IC50,[1],3.02 µM (active)
same,IC50,[2],2.28 µM (active)
O=C(NCc1ccccc1)/C(=C/c1cccc([N+](=O)[O-])c1)NC(=O)c1ccco1,IC50,[1],4.49 µM (active)
same,IC50,[2],4.38 µM (active)
NC(=O)c1nsc(C(=O)N(c2ccccc2F)C(C(=O)NCc2ccc(F)cc2)c2ccc(O)cc2)c1N (stereo unspecified),IC50,[3],> 20 µM (inactive)
same,IC50,[4],29.8 µM (active)
CCOc1ccc(Nc2nc(NCC3CCCO3)c3ccccc3n2)cc1 (stereo unspecified),EC50,[5],33.5 µM (inconclusive)
same,EC50,[6],2.32 µM (active)
same,IC50,[3],> 20 µM (inactive)
COc1c(O)cccc1[C@@H](O)C1CCN(CCc2ccc(F)cc2)CC1,EC50,[7],13.8 µM (active)
same,EC50,[8],14.1 µM (inconclusive)
COC(=O)CCCCCN1C(=O)/C(=C\c2ccncc2)SC1=S,IC50,[9],7.86 µM (active)
same,AC50,[10],12.2 µM (active)
same,EC50,[11],17.7 µM (active)
Cc1ccc(N2C(=O)C3C4C=CC(CN=C(S)N5CCN(c6ccccn6)CC5)(O4)C3C2=O)cc1 (stereo unspecified),AC50,[12],7.77 µM (active)
COc1ccc(C2=NOC(COC(=O)c3ccc4ccccc4n3)C2)cc1 (stereo unspecified),EC50,[13],17.2 µM (active)
same,EC50,[14],> 120 µM (not active)
same,EC50,[15],4.71 µM (active)
same,IC50,[9],9.07 µM (active)
CC(=O)N1CCN(S(=O)(=O)c2cccc(C(=O)OCc3ccc(C(C)(C)C)cc3)c2)CC1,IC50,[1],0.376 µM (active)
same,IC50,[2],0.205 µM (active)
CCc1ccc(C(=O)NNC(=O)c2ccc(=O)n(C)n2)cc1,EC50,[7],> 300 µM (not active)
same,EC50,[8],6.42 µM (active)
O=C1CC(N2CCCN(C3CC(=O)N(c4ccc(F)cc4)C3=O)CC2)C(=O)N1c1ccc(F)cc1 (stereo unspecified),AC50,[12],4.32 µM (active)
Cc1ccccc1C(CC(=O)c1cccs1)C(C#N)C#N (stereo unspecified),AC50,[10],> 380 µM (inconclusive)
same,EC50,[11],1.17 µM (active)
same,CC50,[16],17 µM (active)
CC(=O)OCCN(C)c1cc(SC(C)C)c2nonc2c1[N+](=O)[O-],IC50,[9],41.4 µM (active)
same,AC50,[10],> 380 µM (inactive)
same,EC50,[11],> 380 µM (inactive)
CCCOc1ccc(C(F)(F)F)cc1NC(=O)CCc1c(C)noc1C,AC50,[17],11.6 µM (active)
same,AC50,[18],24.2 µM (active)
same,AC50,[19],51.4 µM (active)
COc1ccc(/C=C2/Sc3ccc(C(=O)NCCN4CCCCCC4)cc3NC2=O)cc1,IC50,[3],> 20 µM (inactive)
COc1ccc2[nH]c(C(=O)N3CCC(CO)(Cc4cccc(C(F)(F)F)c4)CC3)c(C)c2c1,CC50,[16],> 25 µM (active)
COc1ccccc1-c1sc2cc3c(cc2c1C#Cc1cncn1C)OCO3,AC50,[20],4.18 µM (active)
same,IC50,[3],> 20 µM (inactive)
CN1CCN(CCCNC(=O)c2cn(C3CCCCC3)c(=O)c3c2c2ccccc2n3C)CC1,IC50,[3],> 20 µM (inactive)
CCc1ccc(S(=O)(=O)c2nnn3c2nc(NCCNC(C)=O)c2ccccc23)cc1,IC50,[1],3.84 µM (active)
same,IC50,[2],3.5 µM (active)
O=C(c1ccccc1F)N1CCN(Cc2cccc(Cl)c2)CC1,AC50,[18],> 70 µM (inactive)
same,AC50,[19],3.83 µM (active)
Cc1ccc(C(=O)CSc2nc3c(=O)n(C)c(=O)n(C)c3[nH]2)cc1,EC50,[7],> 300 µM (not active)
same,EC50,[8],> 300 µM (not active)
O=C(COc1ccc([N+](=O)[O-])cc1)Nc1ccc2c(c1)CCC2,IC50,[1],14.6 µM (active)
same,IC50,[2],6.78 µM (active)
O=C(N/N=C/c1ccc(-c2cccc([N+](=O)[O-])c2)o1)c1ccc([N+](=O)[O-])cc1,EC50,[7],> 300 µM (not active)
same,EC50,[8],> 300 µM (not active)
same,IC50,[4],> 79 µM (inactive)
CCN(CC)C(=O)C1CCCN(c2ccc([N+](=O)[O-])cc2/C=N/NC(=O)c2cccc(O)c2)C1 (stereo unspecified),IC50,[1],1.93 µM (active)
same,IC50,[2],1.57 µM (active)
C/C(=N\Nc1ncc(Cl)cc1Cl)c1ccc(OC(F)F)cc1,IC50,[1],16.1 µM (active)
same,IC50,[2],14.2 µM (active)
Cc1cccc(C(=O)Oc2ccc(/C=N/NC(=O)Cc3ccc([N+](=O)[O-])cc3)cc2)c1,IC50,[3],> 20 µM (inactive)
O=C(O)CCC(=O)NNc1nc(-c2ccccc2)c2cc(Cl)ccc2n1,EC50,[7],> 300 µM (not active)
same,EC50,[8],9.18 µM (active)
